The text below walks through data of patent US20250290915A1, “METHOD FOR PREDICTING RESPONSIVENESS TO THERAPY” (CANCERTAIN LIMITED, priority 2022, published 2025).

What all share (format): cell-based, human
Experiment [1] has as its system Circulating Tumour Cells (CTCs) from a patient with lung cancer (adenocarcinoma). Briefly: Drug response score assay on CTCs (with CD45+ cells for immunotherapy) from blood, Example 5. As to conditions: lung cancer CTCs; for Drug sensitivity as calculated by the assay (interpretation of Drug Response Scores): Table 17. On the procedure: (§1) CD45^+ cells and circulating tumour cells (CTCs) were isolated from a blood sample provided by each subject.
(§2) CD45 separation was performed by adding human CD45 microbeads (50 μl/ml blood), incubating for 15 minutes at 4° C. and then processing using an AutoMACS machine. This separates the blood sample into CD45^+ and CD45^−cells in 2 separate falcons. The falcon tubes are then centrifuged at 1200 rpm for 5 minutes.
(§3) The supernatant was removed from the CD45^+falcon tube, and the cells resuspended in DMEM with 2 μl Cell Tox, 2 μl MT and 2 μl MT. 20 μl of the resuspended CD45^+ cells was then plated in each well which will contain an immunotherapy treatment.
(§4) The supernatant was removed from the CD45^−falcon tube, and the CD45^−cells contacted with 100 μl of FcR block and 100 μl of CD326 (EpCAM) MicroBeads, followed by incubation at […] 4° C. for 30 minutes. The CD45^−cells were then processed using an AutoMACS machine to separate the EpCAM positive and negative cells into 2 separate falcon tubes. The EpCAM-cells were discarded. The supernatant was removed from the EpCAM^+ cells, and the cells resuspended in DMEM with 2 μl Cell Tox, 2 μl MT and 2 μl MT. 20 μl of the resuspended pellet was then added to all sample wells excluding a blank. After all wells are added to, a cell count was conducted on the […] to determine the number of circulating tumour cells (CTCs).
(§5) The different cell types were each divided equally into populations, depending on the number of drugs/concentrations to be tested and plated on a cell-culture plate pre-coated with a scaffold of polycaprolactone (PCL) electrospun fibres and incubated at 37° C., 5% CO2, for 5 to (typically 10) minutes to facilitate cell attachment. After attachment, an initial imaging step was carried out using the RealTime-Glo™ MT assay from Promega (Catalogue No. G9711)) and the CellTox™ Green Cytotoxicity Assay (Promega, Catalogue No. G8741), carried out according to manufacturer's instructions. Following this initial imagining, the immunotherapeutic and/or chemotherapeutic agents were added to the cell populations as indicated below. After 10 minutes, the imagining step was repeated. The cell populations were then incubated at 37° C., 5% CO2 for 48 hours. The imaging step was then repeated. The cell populations were then re-dosed with the same immunotherapeutic and/or chemotherapeutic agents as indicated below, and incubated at 37° C., 5% CO2 for a further 48 hours. After this second 48 hour incubation, the imagining step was repeated for a final time.
(§6) At the end of this culture period, dose response scores were calculated using a normalized drug response metric as described in Gupta et al. (Communications Biology volume 3, Article number: 42 (2020), https://doi.org/10.1038/s42003-020-0765-z). The start readout for a given immunotherapeutic or chemotherapeutic agent at a given concentration was the to readout for said immunotherapeutic or chemotherapeutic agent at a specified concentration. The end readout for a given immunotherapeutic or chemotherapeutic agent at a given concentration was the final timepoint reading (t96h) for said immunotherapeutic or chemotherapeutic agent at a specified concentration.
(§7) The positive control start readout for a given drug/concentration was the to readout for the corresponding drug at a specified concentration. The positive control end readout for the corresponding drug at a specified concentration was the final timepoint reading (t96h) for the corresponding blank well.
(§8) The negative control start and end readouts for a given immunotherapeutic or chemotherapeutic agent at a given concentration were the to and final timepoint reading (t96h) respectively for blank cell or blank immuno cell well respectively.
(§9) The sensitivity or resistance of a subject's cancer to a given immunotherapeutic or chemotherapeutic agent was determined based on the calculated drug response score as shown in Table 2. […]

Experiment [2] concerns Circulating tumour cells (CTCs) from a patient with GI cancer (Cholangio Carcinoma, stage 4). Briefly: Drug response score assay on blood sample, Example 9. On the procedure: as §1, §2, §3, §4, §5, §6, §7, §8, §9
The test system of experiment [3] is Cancer Cells from tissue sample (CSCs, tumour marker+ cells) of a patient with GI cancer (Cholangio Carcinoma, stage 4). Briefly: Drug response score assay on tissue sample, Example 9. On the procedure: (§10) Where a tissue sample was provided by each subject, cancer stem cells (CSCs, CD133^+), were isolated from said sample. Tumour marker cells were further isolated from each tissue sample. The remaining cells were designated tumour marker^+ cells.
(§11) First, disaggregation of the tissue samples was carried out. Disaggregation was dependent on the size of the tissue sample and the method of retrieval: • EBUS (Endobronchial Ultrasound Scan and Biopsy)—very small fragments of tissue in solution-spun at 1200 rpm for 5 minutes to collect tissue pellet • Bronchoscopy-larger fragments with larger amount of blood vessels • Broncho-lavage-similar to EBUS, spun at 1200 rpm for 5 minutes to collet tissue pellet
(§12) Once a pellet of tissue obtained, DMEM added to the tissue pellet and the material forced through a […] Smart strainer. Once a cell suspension was achieved, this was spun at 1200 rpm for 5 minutes and the supernatant removed. The cells were then resuspended to a volume of 60 μl.
(§13) 20 μl of FcR block and 20 μl of CD133 microbeads were added to the resuspended cells, followed by incubation for 15 minutes at 4° C. The cells were then processed using an AutoMACS machine. This separates the […] into CD133^+ and CD133^− cells in 2 separate falcons. The falcon tubes are then centrifuged at 1200 rpm for 5 minutes.
(§14) The supernatant was removed from the CD133+falcon tube, and the cells resuspended in DMEM with 2 μl Cell Tox, 2 μl MT and 2 μl MT. 20 μl of the resuspended […] was then plated in each well which will contain an immunotherapy treatment.
(§15) The supernatant was removed from the CD133^− falcon tube, and the CD133^− cells contacted with 40 μl of a tumour separation microbeads cocktail containing microbeads bound to anti-CD31, anti-CD45, anti-Glycophorin-A (Gly-A) and an anti-fibroblast antibody.
(§16) This cocktail is used to separate out tumour marker cells using MACS, by separating out CD31^+, CD45^+ and Gly-A^+ cells. In addition, anti-fibroblast antibody-labelled beads are also used. The cocktail is added to the CD133^− falcon tube, followed by incubation for 15 minutes at 4° C. MACS is carried out using an AutoMACS machine. This cells which are not bound by the CD31, CD45, Gly-A and anti-fibroblast antibody beads are the tumour marker^+ cells.
as §5
(§17) At the end of this culture period, dose response scores were calculated using a normalized drug response metric as described in Gupta et al. (Communications Biology volume 3, Article number: 42 (2020), https://doi.org/10.1038/s42003-020-0765-z). The start readout for a given immunotherapeutic or chemotherapeutic agent at a given concentration was the to readout for said immunotherapeutic or chemotherapeutic agent at a specified concentration. […]

In experiment [4] the test system is cancer cells derived from the tissue sample of a patient with osteosarcoma. Put plainly: Drug response score assay on tissue sample, Example 10. As to conditions: osteosarcoma tissue sample. On the procedure:
as §10, §11, §12, §13, §14, §15, §16, §5, §17

Experiment [5] concerns Circulating Tumour Cells (CTCs) from a patient with head and neck cancer (squamous cell carcinoma). Briefly: Drug response score assay on CTCs from blood, Example 6. On the procedure: as §1, §2, §4, §5, §6, §7, §8
The sensitivity or resistance of a subject's cancer to a given immunotherapeutic or chemotherapeutic agent was determined based on the calculated drug response score as shown in Table 2.
Blood samples from a patient with head and neck cancer (squamous cell carcinoma) were received on 11 Mar. 2022 and tested using a 7 drug panel.

Experiment [6] has as its system Circulating Tumour Cells (CTCs) from a patient with rectal cancer (anorectal carcinoma with secondary lung cancer). Put plainly: Drug response score assay on CTCs (with CD45+ cells for immunotherapy) from blood, Example 3. On the procedure:
as §1, §2, §3, §4, §5, §6, §7, §8, §9

For the molecule `C[C@@H](Oc1cc(-c2cnn(C3CCNCC3)c2)cnc1N)c1c(Cl)ccc(F)c1Cl` [Crizotinib], in experiment [1], the “effectiveness on Circulating Tumour Cells (CTCs) under laboratory conditions” value is given as “marginally more effective than other agents” and the “Drug sensitivity as calculated by the assay (interpretation of Drug Response Scores)” value was “S++”.
As to `C#Cc1cccc(Nc2ncnc3cc(OCCOC)c(OCCOC)cc23)c1` [Erlotinib], in experiment [1], the “effectiveness on Circulating Tumour Cells (CTCs) under laboratory conditions” value was “relatively less effective compared rest of the agents” and the “Drug sensitivity as calculated by the assay (interpretation of Drug Response Scores)” value is given as “S+”.
For the molecule `COc1cc2ncnc(Nc3ccc(F)c(Cl)c3)c2cc1OCCCN1CCOCC1` [Gefitinib], in experiment [1], the “effectiveness on Circulating Tumour Cells (CTCs) under laboratory conditions” value was “relatively less effective compared rest of the agents” and the “Drug sensitivity as calculated by the assay (interpretation of Drug Response Scores)” value was “S+”.
With `CCc1c2c(nc3ccc(OC(=O)N4CCC(N5CCCCC5)CC4)cc13)-c1cc3c(c(=O)n1C2)COC(=O)[C@]3(O)CC` [Irinotecan], the “effectiveness on Circulating Tumour Cells under laboratory conditions” value in experiment [2] (GI cancer (Cholangio Carcinoma) blood sample) is “S+”. In addition, the “Drug response score from blood sample, conc. 1” value in experiment [2] (conc. 1 of each drug as in Table 27, blood sample, t96h) amounted to 0.1974. Besides, the “Drug response score from blood sample, conc. 2” value in experiment [2] (conc. 2 of each drug as in Table 27, blood sample, t96h) is recorded as 0.3469. The “Drug response score from blood sample, conc. 3” value in experiment [2] (conc. 3 of each drug as in Table 27, blood sample, t96h) is 0.6197. The “Drug response score from blood sample, conc. 4” value in experiment [2] (conc. 4 of each drug as in Table 27, blood sample, t96h) came to 0.5913. In addition, in experiment [2] (interpretation based on Drug Response Scores, blood sample), the “Drug sensitivity as calculated by the assay, Blood” value was “S+”. In experiment [3] (GI cancer (Cholangio Carcinoma) tissue sample), the “effectiveness on Cancer Cells from tissue sample under laboratory conditions” value is listed as “S+”. For the same molecule, the “Drug sensitivity as calculated by the assay, Tissue” value in experiment [3] (interpretation based on Drug Response Scores, tissue sample) is given as “S+”. For the same molecule, in experiment [3] (tissue sample, conc. 1 per Table 27B: Pem 20, Niv 20, Atez 100, Pacli 0.05, Irino 5, Beva 1 μg/ml, Len 50, 5-FU 250 ng/ml), the “Drug response score, conc. 1” value stood at 0.887. The “Drug response score, conc. 2” value in experiment [3] (tissue sample, conc. 2 per Table 27B: Pem 40, Niv 40, Atez 200, Pacli 0.1, Irino 10, Beva 2 μg/ml, Len 100, 5-FU 500 ng/ml) is on record as 0.9135. Further, the “Drug response score, conc. 3” value in experiment [3] (tissue sample, conc. 3 per Table 27B: Pem 100, Niv 80, Atez 400, Pacli 0.2, Irino 25, Beva 4 μg/ml, Len 200, 5-FU 1000 ng/ml) worked out at 0.8742. Besides, the “Drug response score, conc. 4” value in experiment [3] (tissue sample, conc. 4 per Table 27B: Pem 160, Niv 160, Atez 800, Pacli 1, Irino 50, Beva 8 μg/ml, Len 400, 5-FU 2000 ng/ml) came out at 0.8612. Moreover, the “effectiveness on the cancer cells derived from the tissue sample under laboratory conditions” value in experiment [4] is recorded as “show effectiveness”. For the same molecule, the “Drug sensitivity as calculated by the assay (interpretation of Drug Response Scores)” value in experiment [4] (Table 33) was “Sensitive (S++)”.
`CN(Cc1cnc2nc(N)nc(N)c2n1)c1ccc(C(=O)N[C@@H](CCC(=O)O)C(=O)O)cc1` [Methotrexate]: in experiment [5] (conc. 1: Ifos 0.125 μg/ml, Gemcit 2 μg/ml, Doxo 10 ng/ml, Etop 1 μg/ml, Metho 0.5 μg/ml, Capecit 200 μg/ml, Vinor 20 μg/ml, CTCs, t96h), the “Drug response score, conc. 1” value stood at 0.9711. Further, the “Drug response score, conc. 2” value in experiment [5] (conc. 2: Ifos 0.25 μg/ml, Gemcit 10 μg/ml, Doxo 30 ng/ml, Etop 4 μg/ml, Metho 1 μg/ml, Capecit 300 μg/ml, Vinor 40 μg/ml, CTCs, t96h) is listed as 0.9988. In experiment [5] (conc. 3: Ifos 5 μg/ml, Gemcit 20 μg/ml, Doxo 90 ng/ml, Etop 20 μg/ml, Metho 2 μg/ml, Capecit 400 μg/ml, Vinor 80 μg/ml, CTCs, t96h), the “Drug response score, conc. 3” value was determined as 1.0559. For the same molecule, the “Drug response score, conc. 4” value in experiment [5] (conc. 4: Ifos 10 μg/ml, Gemcit 40 μg/ml, Doxo 270 ng/ml, Etop 100 μg/ml, Metho 4 μg/ml, Capecit 600 μg/ml, Vinor 200 μg/ml, CTCs, t96h) is on record as 0.7375. Further, the “effectiveness on Circulating Tumour Cells under laboratory conditions” value in experiment [5] (head and neck cancer CTCs) is on record as “not effective”. The “Drug sensitivity as calculated by the assay (interpretation of Drug Response Scores)” value was “Resistant” in experiment [5] (head and neck cancer CTCs, Table 20); “S++” in experiment [1].
Consider `CNC(=O)c1cc(Oc2ccc(NC(=O)Nc3ccc(Cl)c(C(F)(F)F)c3)c(F)c2)ccn1` [Regorafinib], for which, in experiment [6] (conc. 1: Pembro 20 μg/ml, Nivo 20 μg/ml (CTCs + CD45+ cells), Lenva 50 ng/ml, Regor 60 μg/ml (CTCs), t96h), the “Drug response score, conc. 1” value turned out to be 0.9681. Moreover, in experiment [6] (conc. 2: Pembro 40 μg/ml, Nivo 40 μg/ml (CTCs + CD45+ cells), Lenva 100 ng/ml, Regor 80 μg/ml (CTCs), t96h), the “Drug response score, conc. 2” value worked out at 0.9212. Moreover, in experiment [6] (conc. 3: Pembro 100 μg/ml, Nivo 80 μg/ml (CTCs + CD45+ cells), Lenva 200 ng/ml, Regor 120 μg/ml (CTCs), t96h), the “Drug response score, conc. 3” value is recorded as 0.7424. For the same molecule, the “Drug response score, conc. 4” value in experiment [6] (conc. 4: Pembro 160 μg/ml, Nivo 160 μg/ml (CTCs + CD45+ cells), Lenva 400 ng/ml, Regor 160 μg/ml (CTCs), t96h) was −0.7024. Also, the “effectiveness on Circulating Tumour Cells under laboratory conditions” value in experiment [6] (rectal cancer CTCs) is “Sensitive S+”. In addition, the “Drug sensitivity as calculated by the assay (interpretation of Drug Response Scores)” value in experiment [6] (rectal cancer CTCs, Table 11) is listed as “Sensitive (S+)”.
